Test results: article PMC5527310, “Stringent Expression Control of Pathogenic R-body Production in Legume Symbiont Azorhizobium caulinodans” (mBio, 2017)

Target: T1, His6-PraR (Azorhizobium caulinodans, UniProt A8IG10)
T1 construct: full praR ORF, N-terminal His6 tag (pCold I, plasmid pTAC99), expressed in E. coli BLR(DE3), Ni-bead purified
Assay: EMSA, FITC-labelled reb promoter dsDNA probe
Conditions: inhibits PraR binding to reb promoter DNA; 2OG 0.01 to 10 mM; pH 8.0, 5 mM MgCl2, 26 °C; direct 2OG binding to PraR not measured

T1 sequence (A8IG10 entry or part of it): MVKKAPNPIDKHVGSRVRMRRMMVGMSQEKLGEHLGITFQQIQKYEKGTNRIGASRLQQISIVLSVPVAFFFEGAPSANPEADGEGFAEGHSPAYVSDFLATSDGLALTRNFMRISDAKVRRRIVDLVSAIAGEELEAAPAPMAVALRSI

Structure (SMILES): O=C(O)CCC(=O)C(=O)O [2-oxoglutarate]
- EMSA, FITC-labelled reb promoter dsDNA probe: binding of PraR to the reb promoter dsDNA probe decreased with increasing 2OG concentration
